US12275725B2, “Inhibitors of the notch transcriptional activation complex and methods for use of the same” (University of Miami, priority 2019, dated 2025)

Experiments:
[1] = GSH ethyl ester conjugation / parent remaining in human liver microsomes; format: in vitro ADME; details: for Percentage (%) Parent Remaining in HLM: reacted with GSH
[2] = system: esophageal adenocarcinoma patient-derived xenograft (EAC47 PDX tumor); assay: Esophageal adenocarcinoma patient-derived xenograft (PDX) model; format: in vivo; details: NSG mice, 25 days of treatment
Experimental: Mouse Xenograft Studies Six-week-old NOD-SCID gamma (“NSG”) mice were purchased from Jackson Laboratories and CD-1 Nude mice were purchased from Charles River Laboratories. For the cell line based xenografts assay, 5×10^6 OE19 cells in 200 μl serum-free culture medium were injected subcutaneously per mouse. The mice in the treatment group were injected with 15 mg/kg NADi-351 daily, and the mice in the control group were injected with the same volume of vehicle (DMSO). Subcutaneous tumor growth was measured once every 4 days using calipers along with body weight. The experiment was discontinued on day 28. PDX cancer models were established, as described in Zhang et al, Establishment of Patient-Derived Xenograft (PDX) Models of Human Breast Cancer, Current Protocols in Mouse Biology, 3:21-29 (2013), in NSG mice. Briefly, 10 mm^3 pieces of primary EAC47 PDX tumor were transplanted subcutaneously into the flanks of NSG mice using a 13G telescopic needle. When the tumors reached 200 mm^3, the mice were split into two uniform groups for treatment. NADi-351 (20 mg/kg) and vehicle were administered daily by intraperitoneal (“IP”) injection for 24 days. Tumor growth was monitored every 4 days and tumor volume was measured by the formula: Volume=(S×S×L)/2, where S and L are the short and long dimensions. […]

intestinal crypts = assay: Histological analysis of mouse intestine tissue (H&E and PAS staining); format: in vivo, BALB/c mice; details: 5 days; DBZ at efficacious dose, NADi-351 at 4x the efficacious dose
Experimental: The compounds and salts disclosed herein no not induce goblet cell metaplasia in intestinal crypts. Intestinal crypts were exposed to vehicle (DMSO), an efficacious dose of dibenzazepine (“DBZ”), a γ-secretase inhibitor, and 4× the efficacious dose of NADi-351 and stained with a hemotoxylin and eosin (“H&E”) stain and a periodic acid-Schiff (“PAS”) stain.
Six-week old BALB/c mice (Jackson Laboratories) were injected intraperitoneally with NADi-351, daily for 5 days. Small intestine samples were harvested on day 5. Formalin-fixed and paraffin-embedded tissues were sectioned at 3 μm thickness. Histochemical identification of intestinal cell types was performed with Periodic Acid-Schiff (PAS) staining kit (ab150680, Abcam), according to manufacturer's instructions.

Notch target genes = assay: Quantitative RT-PCR of Notch target genes in OE33 cells; format: cell-based, human; details: OE33, 48 h, compared to control (DMSO), normalized to TBP
Experimental: Quantitative RT-PCR Other Assays
RNA was isolated from OE33 cells treated with either DMSO (vehicle) or NADi-351 for 48 h, using an RNA purification kit (Qiagen), following the manufacturer's instructions. cDNA was synthesized using the High Capacity cDNA Reverse Transcription kit (Applied Biosystems), according to the manufacturer's instructions. qPCR reactions were carried out in the Bio-Rad CFX96 thermal cycler using Sybr Green Master Mix (Bio-Rad). Gene expression was normalized to housekeeping gene TBP. […]

[3] = target: T1, Notch transcriptional activation complex (NTC) (Homo sapiens, UniProt P46531+Q06330); assay: Notch complex assembly assay (NTC AlphaScreen assay); format: binding
T1 construct: made in house; host or cells: SF21 insect cells (baculovirus)
Experimental: Notch Complex Assembly Assay
All recombinant proteins were expressed using baculovirus expression vectors in SF21 cells and purified. Unless otherwise stated, all assays contained 125 fmol of double stranded oligonucleotide, CSL, Notch1 and MAML1 proteins. Reactions were carried out in Tris-buffered saline with 0.1% Tween (“TBS-T”) buffer containing 0.2% bovine serum albumin (“BSA”) and 100 μg/mL salmon sperm DNA. Briefly, the Notch complex was assembled on a biotinylated double stranded (“DS”) oligonucleotide harboring one CSL binding site (5′-[…]-3′). Complex assembly was quantitated using ALPHASCREEN technology (Perkin Elmer). Proteins in the complexes were detected using specific antibodies to either MAML1 (Cell signaling, D3K7B), Notch1 (Abcam, 52627) or CSL (anti-His, Abcam 18184). Streptavidin conjugated […] beads (Perkin Elmer, 6760002) were used to bind the DS oligonucleotide, and Protein-A conjugated […] beads (Perkin Elmer, 6760137) were used to detect antibody-coated proteins. For screening compounds, Notch transcriptional activation complex (“NTC”) components were added to wells that already contained the inhibitor to be assayed and allowed to incubate for 30 minutes. The ALPHASCREEN plate (Perkin Elmer, 6008350) was then read on an Envision Plate reader (Perkin Elmer) as specified by the manufacturer.

[4] = system: OE33 cell line (esophageal adenocarcinoma); assay: Tumor sphere viability, MTT assay, OE33; format: cell-based, human; details: OE33, 72 hours of treatment
Experimental: FIG. 4A depicts a graph showing the ability of NADi-351 to inhibit the tumor sphere viability of the OE33 cell line (esophageal adenocarcinoma) after 72 hours of treatment using the Methylthiazolyldiphenyl-tetrazolium bromide (“MTT”) assay.
The compounds and salts disclosed herein can inhibit the viability of tumor spheres and decrease Notch target gene expression.
OE33 cells, human esophageal adenocarcinoma cell lines, were obtained from the European Collection of Cell Culture. SUM-149 and SUM-159, breast cancer cell lines, were obtained from Dr. Joyce Slingerland at the University of Miami School of Medicine. The following cell lines were obtained directly from the ATCC: 786-0, a human renal cell adenocarcinoma cell line; HT-1080, a human fibrosarcoma cell line; MCF-7, a mammary gland adenocarcinoma; T47D, a human mammary ductal carcinoma cell line; and H-23 a non-small cell lung adenocarcinoma cell line. All cell lines were propagated in growth media as specified.

T1 sequence (P46531 1754-2555 limits assumed): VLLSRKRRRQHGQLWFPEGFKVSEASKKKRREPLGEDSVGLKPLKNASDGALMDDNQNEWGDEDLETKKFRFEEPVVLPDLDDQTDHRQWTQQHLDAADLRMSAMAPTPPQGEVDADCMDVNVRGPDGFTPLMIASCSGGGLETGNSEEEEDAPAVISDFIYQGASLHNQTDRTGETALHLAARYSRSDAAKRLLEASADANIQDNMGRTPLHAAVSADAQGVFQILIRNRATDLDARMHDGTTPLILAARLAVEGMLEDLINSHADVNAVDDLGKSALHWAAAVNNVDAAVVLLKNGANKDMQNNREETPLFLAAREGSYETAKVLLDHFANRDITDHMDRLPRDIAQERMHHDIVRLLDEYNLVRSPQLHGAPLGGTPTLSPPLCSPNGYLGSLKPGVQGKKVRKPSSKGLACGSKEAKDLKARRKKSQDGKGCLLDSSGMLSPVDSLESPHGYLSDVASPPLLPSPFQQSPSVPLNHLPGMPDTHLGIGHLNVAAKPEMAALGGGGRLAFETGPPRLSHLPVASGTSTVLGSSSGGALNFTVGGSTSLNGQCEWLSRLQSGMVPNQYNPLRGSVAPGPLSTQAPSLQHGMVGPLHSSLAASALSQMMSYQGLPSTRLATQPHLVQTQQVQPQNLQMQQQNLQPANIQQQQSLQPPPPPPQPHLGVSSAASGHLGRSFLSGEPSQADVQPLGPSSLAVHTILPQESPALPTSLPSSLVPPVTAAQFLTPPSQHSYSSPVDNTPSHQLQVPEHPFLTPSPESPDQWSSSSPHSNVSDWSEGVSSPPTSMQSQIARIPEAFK
T1 sequence (Q06330 whole entry): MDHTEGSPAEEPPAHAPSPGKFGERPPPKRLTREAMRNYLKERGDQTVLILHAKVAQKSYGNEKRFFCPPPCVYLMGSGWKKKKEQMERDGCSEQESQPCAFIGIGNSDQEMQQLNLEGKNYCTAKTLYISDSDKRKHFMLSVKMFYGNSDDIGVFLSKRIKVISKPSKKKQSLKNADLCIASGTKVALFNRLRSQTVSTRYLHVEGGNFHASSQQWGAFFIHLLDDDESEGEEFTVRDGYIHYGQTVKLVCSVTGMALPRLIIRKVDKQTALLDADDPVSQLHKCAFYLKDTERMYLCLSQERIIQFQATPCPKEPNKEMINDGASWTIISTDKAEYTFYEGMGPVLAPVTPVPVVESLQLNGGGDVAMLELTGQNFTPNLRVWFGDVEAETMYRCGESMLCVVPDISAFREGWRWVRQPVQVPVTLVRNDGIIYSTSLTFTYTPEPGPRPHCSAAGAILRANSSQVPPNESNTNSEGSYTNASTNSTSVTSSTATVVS

Percentage (%) Parent Remaining in HLM ([1]; incubation time 0 min): 100%
Percentage (%) Parent Remaining in HLM ([1]; incubation time 60 min): 86%
IC50 ([3]; Table E, NTC AlphaScreen assay, read-out: *IC50): 2.4 nM
increase in potency over NADi-260 ([3]; methylated at the alkene vs NADi-260): 10 fold
SMILES: COc1cc(/C(C)=C2\SC(=S)N(CC(=O)N(C)C)C2=O)cc(F)c1OCc1nnc[nH]1 [NADi-351, (Z)-2-(5-(1-(4-((1H-1,2,4-triazol-3-yl)methoxy)-3-fluoro-5-methoxyphenyl)ethylidene)-4-oxo-2-thioxothiazolidin-3-yl)-N,N-dimethylacetamide]
GSH ethyl ester conjugation in HLM ([1]; within 60 minutes of incubation): increased stability toward GSH ethyl ester conjugation
body weight of the subjects [2]: remained constant
volume of the tumor ([2]; compared to control): significantly inhibited compared to control
goblet cell metaplasia / crypt integrity (H&E and PAS staining) (intestinal crypts): no goblet cell metaplasia and intact crypts
expression of Notch target genes (Notch target genes): decreased the expression of Notch target genes
decrease of tumor sphere viability [4]: about 75%
